Key:
SR-BI = test: Immunoblot of SR-BI expression in tissues of estrogen-treated rats; assay type: in vivo, rat
Procedure: Tissues of estrogen-treated rats were screened for expression of SR-BI as described above following treatment of rats with 17-α-ethylenyl estradiol (estrogen). The rats were treated for five consecutive days with subcutaneous injections of 5 mg/kg 17-α-ethylenyl estradiol in propylene glycol or with propylene glycol alone (sham-injected).

LDL receptor = test: Immunoblot of LDL receptor expression in estrogen-treated rats; assay type: in vivo; conditions: rat, liver
HDL lipid uptake = HDL lipid uptake in vivo after DiI-HDL injection in estrogen-treated rats; set-up: species or system rat; conditions: DiI-HDL 800 μg protein/kg into jugular vein, 1 hour
Procedure: For analysis of HDL lipid uptake in vivo, rats were anesthetized with nembutal or metafane before injection of DiI-HDL (800 μg protein/kg) into the left jugular vein. 1 hour later the anesthetized animals were perfused with oxygenated HBSS. Frozen sections (12 μm thick) of sucrose-infiltrated tissues were prepared. Tissue sections were viewed and photographed with a Zeiss photomicroscope III with the appropriate filter package.

[1] = Plasma total cholesterol and FPLC lipoprotein profile of PROBUCOL-fed mice; assay type: in vivo; conditions: for Reduction of plasma cholesterol levels: 0.5% PROBUCOL chow; for Average plasma total cholesterol (±SEM): 0.5% PROBUCOL-enriched chow
Procedure: (§1) • Lipoprotein analysis. Plasma, collected from Avertin anesthetized mice, was size fractionated by FPLC, and the total cholesterol in each fraction or in unfractionated plasma was determined as described previously (Rigotti, A., et al. 1997 Proc. Natl. Acad. Sci. USA. 94:12610–12615) or by using a commercial kit (Wako Chemical USA Inc., Richmond, Va., USA). For apoA-I KO mice, 500 μl of pooled plasma was used for FPLC analyses. • Animals. […] Opinl Lipidol. 11:123-131 (2000)), apoA-I KO (Kozarsky, et al., Nature 387414–417 (1997)) (C57BL/6; The Jackson Laboratory, Bar Harbor, Me., USA), and RAG-2 KO (mixed C57BL/6×129×BALB/c background; gift from Jianzhu Chen, Massachusetts Institute of Technology). Double SR-BI/apoA-I KO and SR-BI/RAG-2 KO mice were produced by (a) mating SR-BI KO males with apoA-I KO or RAG-2-KO females, (b) transferring the resulting embryos into Swiss Webster recipients, and (c) intercrossing the double heterozygous offspring.

[2] = system: SR-BI KO and wild-type female mice; test: Fertility of female mice mated with wild-type males; assay type: in vivo
Procedure: as §1
Colonies were maintained by crossing double- KO males with females heterozygous for the SR-BI null mutation and homozygous for the apoA-I or RAG-2 mutation to optimize the low yield of SR-BI homozygotes. It has been possible to obtain only a few homozygous null SR-BI KO mice on an essentially pure C57BL/6 background (backcrossed nine times to pure C57BL/6 mice). Experiments with these (n=3; 4- month matings, no litters) and additional mixed background SR-BI KO mice (n=19) confirmed the extremely low fertility of female SR-BI KO mice. PCR was used for genotyping the various mutant mouse lines. The primers for analyses were as follows: for SR-BI, the primers were as described by Rigotti, et al., Proc. Natl. Acad. Sci. USA 94:12610–12615 (1997); for apoA-I, the following set of four primers were used: 5′ -[…]-3′ (SEQ ID NO:8), 5′-[…]-3′(SEQ ID NO:9), 5′-[…]-3′ (SEQ ID NO:10), and 5′-[…]-3 (SEQ ID NO:11)′ (sequences and protocols originally from the Jackson Laboratories), or primers 5′-[…]-3″ (SEQ ID NO: 12) and 5′-[…]-3′(SEQ ID NO:13); and for RAG-2, the primers were 5′-[…]-3″(SEQ ID NO:14) and 5′-[…]-3″ (SEQ ID NO:15) (kindly provided by Charles Whitehurst, Massachusetts Institute of Technology). All animal studies were approved by the Massachusetts Institute of Technology Committee on Animal Care. To test the fertility of genetically, surgically, or pharmacologically manipulated female mice, virgin females were housed continuously with wild-type males, and numbers of litters and pups were counted during the mating period. […] Otherwise shorter 1- to 2-month mating periods were used when the fertile females produced litters relatively quickly. • Ovary transplantation. Donor SR-BI KO or control wild-type mice (5–6 weeks of age) were sacrificed by cervical dislocation, and the ovaries were removed. Hosts (RAG-2 KO mice), 4–6 weeks of age, were anesthetized with 2.5% Avertin (intraperitoneally), and ovary transfer surgery was performed. In brief, ovaries of the host mice were removed from the surrounding ovarian bursa by cutting the side opposite to the ovarian hilus. Ovaries from the donor mice were then inserted into the ovarian bursa and the bursa closed with Vetbond tissue adhesive (3M Animal Care Products, St. Paul, Minn., USA). In sham ovary transplants (n=5), ovaries of SR-BI KO mice were removed and reinserted into the same mouse (either unilaterally when the contralateral oviduct was cut, n=1, or bilaterally, n=4). […]

[3] = estrogen-treated versus control rats
[4] = rat, 5 mg/kg subcutaneous for five consecutive days, versus sham-injected
[5] = PROBUCOL-fed SR-BI KO females, n=14, 1- to 2-month mating

Compound: 17-α-ethylenyl estradiol [estrogen]
- SR-BI expressed in the liver (SR-BI; [3]): significantly reduced levels
- SR-BI in the ovaries (SR-BI; [3]): elevated levels
- SR-BI expression in adrenal membranes (SR-BI; [4]): upregulation of SR-BI
- SR-BI levels in tissues showing trace signal (lung, testes, skin) (SR-BI; [4]): no change in SR-BI levels
- SR-BI expression (immunoblot compared with LDL receptor) (SR-BI; rat, estrogen-treated, liver): dramatically downregulated
- LDL receptor expression (LDL receptor): tremendous upregulation
- DiI-HDL fluorescence in the ovaries (HDL lipid uptake): elevated levels
- Uptake of lipid into adrenal tissues (HDL lipid uptake): dramatically increased

Compound: CC(C)(Sc1cc(C(C)(C)C)c(O)c(C(C)(C)C)c1)Sc1cc(C(C)(C)C)c(O)c(C(C)(C)C)c1 [PROBUCOL™, 4,4′-(isopropylidenedithio) bis(2,6-di-tert-butylphenol)]
- Reduction of plasma cholesterol levels ([1]; SR-BI KO mice): approximately 49%
- Average plasma total cholesterol (±SEM) ([1]; SR-BI KO mice, n=14): 107.8 ± 6.3 mg/dL
- Effect on apparent sizes of the HDLs ([1]; wild-type and SR-BI KO mice, FPLC): without substantially altering the apparent sizes of the HDLs
- Reduction of plasma cholesterol levels ([1]; wild-type mice): approximately 67%
- Average plasma total cholesterol (±SEM) ([1]; wild-type mice, n=9): 33.6 ± 3.4 mg/dL
- Average time from mating to delivery ([2]; PROBUCOL-fed SR-BI KO females): 28.4 days
- Average litter size [2, 5]: 5.7
- Percentage of females producing litters [2, 5]: 93%
- Average litter size ([2]; PROBUCOL-fed wild-type females, n=9, 1- to 2-month mating): 5.3
- Restoration of fertility ([2]; SR-BI KO females, treatment began 1–3.5 weeks before mating and continued throughout): completely restored fertility
